In paper PMC8700777, “Identification of the EdcR Estrogen-Dependent Repressor in Caenibius tardaugens NBRC 16725: Construction of a Cellular Estradiol Biosensor” (Genes, 2021) one finds EC50 data, which are given here for two molecules.

Test [1] has as its system EdcR (TetR-like repressor, EGO55_13520). Nature of the test: EdcR-dependent Pb-msf-gfp reporter de-repression in E. coli DH10B (with RT-PCR in C. tardaugens ΔedcA). The format is cell-based, Escherichia coli DH10B.
For test [2] the test system is unchanged. In words: EdcR-dependent Pb-msf-gfp reporter de-repression in E. coli DH10B. The format is cell-based, Escherichia coli DH10B.

A word on the EC50: it is the concentration that produces a half-maximal response. Regarding `C[C@]12CC[C@@H]3c4ccc(O)cc4CC[C@H]3[C@@H]1CCC2=O` [E1, estrone], in test [1], it took 1.38 µM to reach a half-maximal effect (EC50).

`C[C@]12CC[C@@H]3c4ccc(O)cc4CC[C@H]3[C@@H]1CC[C@@H]2O` [E2, 17β-estradiol] gave an EC50 in test [2] of 3.32 µM.
